pIC50: −log10 of the molar value. Structures can show the parent of a compound that is named as a salt.
target: T1, human PAR-2 (hPAR-2) receptor expressed in HEK-293 T cells in an endogenous manner (Homo sapiens, UniProt P55085); assay: In vitro human PAR-2 functional antagonist activity using calcium assays (Fluo4AM, FLIPR Tetra); type: cell-based; conditions: HEK-293 T cells stimulated by an EC80 of the 2-Furoyl-LIGRLO-NH2 peptide after 10 min incubation with compound; 20 concentrations, duplicate, two independent experiments
T1 construct: human PAR-2 (hPAR-2) receptor expressed in HEK-293 T cells in an endogenous manner; endogenous in cells; host or cells: HEK-293 T cells
T1 sequence (P55085 26-397): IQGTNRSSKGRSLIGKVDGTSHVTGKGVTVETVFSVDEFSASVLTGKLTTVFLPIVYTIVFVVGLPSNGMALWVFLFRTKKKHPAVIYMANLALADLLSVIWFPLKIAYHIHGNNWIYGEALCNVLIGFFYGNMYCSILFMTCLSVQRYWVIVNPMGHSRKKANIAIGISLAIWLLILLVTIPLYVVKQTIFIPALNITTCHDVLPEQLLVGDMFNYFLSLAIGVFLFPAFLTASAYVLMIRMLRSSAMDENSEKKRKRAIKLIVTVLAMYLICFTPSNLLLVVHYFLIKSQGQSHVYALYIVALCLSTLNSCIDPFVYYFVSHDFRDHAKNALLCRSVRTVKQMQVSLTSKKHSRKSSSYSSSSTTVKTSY
Procedure: In vitro human PAR-2 functional antagonist activity using calcium assays
Examples of the present invention were tested successively for their agonist and antagonist activities on human PAR-2 (hPAR-2) receptor expressed in HEK-293 T cells in an endogenous manner. Compounds exert agonist activity if, by themselves in absence of the 2-Furoyl-LIGRLO-NH2 peptide (selective hPAR-2 agonist), they activate PAR-2; they exert antagonist activity if they decrease the action of the 2-Furoyl-LIGRLO-NH2 peptide on the receptor. The assay used to determine compound activity is based on calcium measurement.
Cell Culture: HEK-293 T cells were maintained in Dulbecco's Modified Eagle's Medium supplemented with 10% Foetal Calf Serum, 1% Penicillin/Streptomycin at 37° C./5% CO2. Flasks for tests (F75) are seeded with 6e+06 cells 24 h before the experiment at 37° C./5% CO2.
Calcium assay: Receptor activity was detected by changes in intracellular calcium measured using the fluorescent Ca^2+ sensitive dye, Fluo4AM (Molecular Probes).
The day of the assay, medium was replaced by assay buffer (HBSS 1× (Gibco 14175-053), Hepes 20 mM, MgSO4-7H2O 1 mM, Na2CO3 3.3 mM, CaCl2-2H2O 1.3 mM, 0.5% BSA, Probenecid 2.5 mM, 0.1 mg/mL Pluronic Acid) and complemented with 1 μM Fluo4AM and cells were incubated during 1:30 h at 37° C.
Cells were then detached, resuspended in assay buffer and seeded in 384 wells, transparent-flat bottom black walled plates (2e+04 cells per well). Plates were incubated at +22° C. for 20 min. Compounds stock solutions were prepared in 100% DMSO and dilutions in test buffer were carried out in polypropylene plates with a digital dispenser (D300e, Tecan). Compounds were added to the cells and intracellular Ca^2+ measurements were collected at the same time on FLIPR Tetra® (Molecular Devices) with specific filters (Exc: 470-495 nm/Em: 515-575 nm).
Agonist and antagonist activities of compounds were consecutively evaluated on the same cell plate. Agonist activity was first measured after 10 min incubation with the compound alone. Then, cells were stimulated by an EC80 of the 2-Furoyl-LIGRLO-NH2 peptide and fluorescence was recorded for an additional 5 min. EC80 of the 2-Furoyl-LIGRLO-NH2 peptide was the concentration giving 80% of the maximal 2-Furoyl-LIGRLO-NH2 response. Agonist activities are evaluated in comparison to basal signals evoked by assay buffer or maximal 2-Furoyl-LIGRLO-NH2 response. […] Antagonist activities are evaluated in comparison to basal signals evoked by assay buffer or EC80 of 2-Furoyl-LIGRLO-NH2 alone.

| Compound | pIC50 |
| --- | --- |
| Cc1cc(C2=CCN(C(=O)c3ccc4c(-c5ccc(Cl)c(F)c5)cn(C(C)(C)C)c4n3)CC2)nc(C)c1C(=O)O [Example 167, 1′-(1-(tert-butyl)-3-(4-chloro-3-fluorophenyl)-1H-pyrrolo[2,3-b]pyridine-6-carbonyl)-4,6-dimethyl-1′,2′,3′,6′-tetrahydro-[2,4′-bipyridine]-5-carboxylic acid] | 5.00 to 7.70 |
| Cc1cccc(Cn2cc(-c3ccc(Cl)c(F)c3)c3ccc(C(=O)N4CCN(c5cc(C)c(C(=O)O)c(C)n5)CC4(C)C)nc32)n1 [Example 192, 6-(4-(3-(4-chloro-3-fluorophenyl)-1-((6-methylpyridin-2-yl)methyl)-1H-pyrrolo[2,3-b]pyridine-6-carbonyl)-3,3-dimethylpiperazin-1-yl)-2,4-dimethylnicotinic acid hydrochloride] | > 7.70 |
| CN1C(=O)N(C)C2(CCN(C(=O)c3ccc4c(-c5ccc(Cl)c(F)c5)cn(C(C)(C)C)c4n3)CC2)C1=O [Example 197, 8-(1-(tert-butyl)-3-(4-chloro-3-fluorophenyl)-1H-pyrrolo[2,3-b]pyridine-6-carbonyl)-1,3-dimethyl-1,3,8-triazaspiro[4.5]decane-2,4-dione] | 5.00 to 7.70 |
| CC(C)Cn1cc(C2=CCN(C)CC2)c2ccc(C(=O)N3CCNC(=O)C3(C)C)nc21 [Example 91, 4-(1-isobutyl-3-(1-methyl-1,2,3,6-tetrahydropyridin-4-yl)-1H-pyrrolo[2,3-b]pyridine-6-carbonyl)-3,3-dimethylpiperazin-2-one hydrochloride] | < 5.00 |
| CC(C)Cn1cc(-c2cc3cc(F)ccc3[nH]2)c2ccc(C(=O)N3CCNC(=O)C3(C)C)nc21 [Example 225, 4-(3-(5-fluoro-1H-indol-2-yl)-1-isobutyl-1H-pyrrolo[2,3-b]pyridine-6-carbonyl)-3,3-dimethylpiperazin-2-one] | 5.00 to 7.70 |
| Cc1cc(N[C@H]2CCN(C(=O)c3ccc4c(-c5ccc(Cl)c(F)c5)cn(C(C)(C)C)c4n3)C2)nc(C)c1C(=O)O [Example 154, (S)-6-((1-(1-(tert-butyl)-3-(4-chloro-3-fluorophenyl)-1H-pyrrolo[2,3-b]pyridine-6-carbonyl)pyrrolidin-3-yl)amino)-2,4-dimethylnicotinic acid] | < 5.00 |
| Cc1cc(N2CCN(C(=O)c3ccc4c(-c5ccc(Cl)c(F)c5)cn(C(C)(C)C)c4n3)CC2)nc(C)c1C(=O)O [Example 99, 6-(4-(1-(tert-butyl)-3-(4-chloro-3-fluorophenyl)-1H-pyrrolo[2,3-b]pyridine-6-carbonyl)piperazin-1-yl)-2,4-dimethylnicotinic acid] | > 7.70 |
| Cc1cc(N2CCN(C(=O)c3ccc4c(-c5ccc(Cl)c(F)c5)cn(C(C)C)c4n3)C(C)(C)C2)nc(C)c1C(=O)O [Example 97, 6-(4-(3-(4-chloro-3-fluorophenyl)-1-isopropyl-1H-pyrrolo[2,3-b]pyridine-6-carbonyl)-3,3-dimethylpiperazin-1-yl)-2,4-dimethyinicotinic acid] | > 7.70 |
| Cc1cc(N2CCN(C(=O)c3ccc4c(-c5ccc(Cl)c(F)c5)cn(Cc5ncccn5)c4n3)C(C)(C)C2)nc(C)c1C(=O)O [Example 158, 6-(4-(3-(4-chloro-3-fluorophenyl)-1-(pyrimidin-2-ylmethyl)-1H-pyrrolo[2,3-b]pyridine-6-carbonyl)-3,3-dimethylpiperazin-1-yl)-2,4-dimethylnicotinic acid] | 5.00 to 7.70 |
| CC(C)(C)n1cc(-c2ccc(Cl)c(F)c2)c2ccc(C(=O)N3CCNC(=O)CC3)nc21 [Example 18, 1-(1-(tertbutyl)-3-(4-chloro-3-fluorophenyl)-1H-pyrrolo[2,3-b]pyridine-6-carbonyl)-1,4-diazepan-5-one] | 5.00 to 7.70 |
| CC(C)Cn1cc(-c2ccc(OC(F)(F)F)cc2)c2ccc(C(=O)N3CCNC(=O)C3(C)C)nc21 [Example 116, 4-(1-isobutyl-3-(4-(trifluoromethoxy)phenyl)-1H-pyrrolo[2,3-b]pyridine-6-carbonyl)-3,3-dimethylpiperazin-2-one] | 5.00 to 7.70 |
| CN(C)C(=O)c1ccc(N2CCN(C(=O)c3ccc4c(-c5ccc(Cl)c(F)c5)cn(C(C)(C)C)c4n3)C(C)(C)C2)nc1 [Example 139, 6-(4-(1-(tert-butyl)-3-(4-chloro-3-fluorophenyl)-1H-pyrrolo[2,3-b]pyridine-6-carbonyl)-3,3-dimethylpiperazin-1-yl)-N,N-dimethylnicotinamide] | > 7.70 |
| CC[C@H](C)n1cc(-c2ccc(Cl)c(F)c2)c2ccc(C(=O)N3CCN(c4cc(C)c(C(=O)O)c(C)n4)CC3(C)C)nc21 [Example 172, (S)-6-(4-(1-(sec-butyl)-3-(4-chloro-3-fluorophenyl)-1H-pyrrolo[2,3-b]pyridine-6-carbonyl)-3,3-dimethylpiperazin-1-yl)-2,4-dimethylnicotinic acid] | > 7.70 |
| CC(C)Cn1cc(-c2ccc(Cl)c(F)c2)c2ccc(C(=O)N3CCNC(=O)C3(C)C)nc21 [Example 29, 4-(3-(4-chloro-3-fluorophenyl)-1-isobutyl-1H-pyrrolo[2,3-b]pyridine-6-carbonyl)-3,3-dimethylpiperazin-2-one] | > 7.70 |
| COCC(C)(C)n1cc(-c2ccc(Cl)c(F)c2)c2ccc(C(=O)N3CCN(c4cc(C)c(C(=O)O)c(C)n4)CC3(C)C)nc21 [Example 152, 6-(4-(3-(4-chloro-3-fluorophenyl)-1-(1-methoxy-2-methylpropan-2-yl)-1H-pyrrolo[2,3-b]pyridine-6-carbonyl)-3,3-dimethylpiperazin-1-yl)-2,4-dimethylnicotinic acid] | > 7.70 |
| Cc1cc(NC2CCN(C(=O)c3ccc4c(-c5ccc(Cl)c(F)c5)cn(C(C)(C)C)c4n3)CC2)nc(C)c1C(=O)O [Example 100, 6-((1-(1-(tert-butyl)-3-(4-chloro-3-fluorophenyl)-1H-pyrrolo[2,3-b]pyridine-6-carbonyl)piperidin-4-yl)amino)-2,4-dimethylnicotinic acid] | 5.00 to 7.70 |
| CC(C)Cc1nn(-c2ccc(Cl)cc2Cl)c2ccc(C(=O)N3CCNC(=O)C3(C)C)nc12 [Example 73, 4-(1-(2,4-dichlorophenyl)-3-isobutyl-1H-pyrazolo[4,3-b]pyridine-5-carbonyl)-3,3-dimethylpiperazin-2-one] | 5.00 to 7.70 |
| Cc1cc(N[C@@H]2CCN(C(=O)c3ccc4c(-c5ccc(Cl)c(F)c5)cn(C(C)(C)C)c4n3)C2)nc(C)c1C(=O)O [Example 153, (R)-6-((1-(1-(tert-butyl)-3-(4-chloro-3-fluorophenyl)-1H-pyrrolo[2,3-b]pyridine-6-carbonyl)pyrrolidin-3-yl)amino)-2,4-dimethylnicotinic acid] | < 5.00 |
| CNC(=O)CN1CCN(C(=O)c2ccc3c(-c4ccc(Cl)c(F)c4)cn(C(C)(C)C)c3n2)C(C)(C)C1=O [Example 6, 2-(4-(1-(tert-butyl)-3-(4-chloro-3-fluorophenyl)-1H-pyrrolo[2,3-b]pyridine-6-carbonyl)-3,3-dimethyl-2-oxopiperazin-1-yl)-N-methylacetamide] | > 7.70 |
| CC(C)Cn1cc(-c2ccccc2OC(F)(F)F)c2ccc(C(=O)N3CCNC(=O)C3(C)C)nc21 [Example 112, 4-(1-isobutyl-3-(2-(trifluoromethoxy)phenyl)-1H-pyrrolo[2,3-b]pyridine-6-carbonyl)-3,3-dimethylpiperazin-2-one] | 5.00 to 7.70 |
| Cc1cc(N2CCN(C(=O)c3ccc4c(-c5ccc(Cl)c(F)c5)c(C)n(CC(C)C)c4n3)C(C)(C)C2)nc(C)c1C(=O)O [Example 104, 6-(4-(3-(4-chloro-3-fluorophenyl)-1-isobutyl-2-methyl-1H-pyrrolo[2,3-b]pyridine-6-carbonyl)-3,3-dimethylpiperazin-1-yl)-2,4-dimethylnicotinic acid] | > 7.70 |
